Measurements from paper PMC8044178, “Structural basis of norepinephrine recognition and transport inhibition in neurotransmitter transporters” (Nature Communications, 2021).
Where “and” joins values, the source holds several entries; their conditions need not be identical. Equal entries are not always repeated. Where two headings read alike, the source gives them in different places.

Tests used:
[1] = target: T1, dDATNET (Drosophila melanogaster, UniProt Q7K4Y6, D121G/DEL162-202/F471L/L415A/S426M/V74A); assay: biochemical; type: binding
T1 construct: GFP-8x-His (C); made in house; host or cells: HEK293S GnTI- cells, BacMam baculovirus transduction
Method: (§1) Binding assays were performed with 20 nM of purified dDAT protein by scintillation proximity assay. For determining nisoxetine Kd, [^3H] Nisoxetine (Perkin Elmer) (in 1:5 molar ratio) was used in the range of 0.1 nM to 500 nM with 100 µM desipramine added to the control samples. Competition assays were done with 50 nM [^3H] […] The assays were done in 1 mM DDM, 0.2 mM CHS, 20 mM Tris-Cl (pH 8), 300 mM NaCl and 5% glycerol. The background values were subtracted to plot the final curves in GraphPad prism v5.0.1 and the Kd values were calculated. The IC50 values obtained from binding competition assays were used to deduce the Ki values by Cheng–Prusoff’s equation.

[2] = test system: hNET; details: read-out: KM of transport by hNET; cited from earlier work
[3] = target: T2, dDATfc (Drosophila melanogaster dopamine transporter functional construct) (Drosophila melanogaster, UniProt Q7K4Y6, DEL164-191/F471L/L415A/V74A); assay: cell-based; details: for inhibition at 10 µM: Log[compound] M = -5
T2 construct: expressed in transfected cells; host or cells: HEK293S GnTI- cells, transient transfection with pEG-BacMam plasmid
Method: (§2) Additional mutations in the subsite B or subsite C were incorporated into this gene used for carrying out the uptake assays.
(§3) Cells were transiently transfected with pEG-BacMam plasmid harboring the dDAT cGFP gene and incubated for 35–40 hrs at 37 °C with 5% CO2 and 80% humidity. […] The transport activity was arrested with 0.5 ml of pre-chilled assay buffer containing 100 μM desipramine (Sigma Aldrich) added to each reaction. The cells were then washed twice with the same buffer before solubilizing them in 0.1 ml of 20 mM DDM for one hour at room temperature. […] Following this, 0.1 ml of the supernatant was added to 0.5 ml of scintillation fluid (Ultima Gold, Perkin Elmer) and the radioactivity was estimated on MicroBeta scintillation counter (Perkin Elmer). […] The background-subtracted, dose–response plots were analyzed using GraphPad Prism v.5.0.1 and Ki values were determined from Cheng–Prusoff’s equation using the IC50 values obtained from the experiments.

[4] = test system: hDAT; details: read-out: KM of transport by hDAT; cited from earlier work
[5] = target: T3, dDATmfc (Drosophila melanogaster, UniProt Q7K4Y6, DEL162-202/F471L/L415A/V74A); assay: biochemical; details: read-out: Percent binding
T3 construct: GFP-8x-His (C); made in house; host or cells: HEK293S GnTI- cells, BacMam baculovirus transduction
Method: as §1

[6] = target: T4, dDATfc A117S/A428S (Drosophila melanogaster, UniProt Q7K4Y6, A117S/A428S/DEL164-191/F471L/L415A/V74A); assay: cell-based; type: cell-based
T4 construct: expressed in transfected cells; host or cells: HEK293S GnTI- cells, transient transfection with pEG-BacMam plasmid
Method: (§4) Earlier studies have posited that non-conserved residues in the primary binding site are responsible for selective inhibition of biogenic amine uptake[57],[58]. […] Effects of these mutations were analyzed through uptake inhibition using the three SNRIs employed in this study (Fig. 6a–c). […] Supplementary Table 2)[56],[59].
as §2, §3

[7] = target: T5, dDATfc A117S (Drosophila melanogaster, UniProt Q7K4Y6, A117S/DEL164-191/F471L/L415A/V74A); assay: cell-based
T5 construct: expressed in transfected cells; host or cells: HEK293S GnTI- cells, transient transfection with pEG-BacMam plasmid
Method: as §4, §2, §3

[8] = target: T6, dDATfc A428S (Drosophila melanogaster, UniProt Q7K4Y6, A428S/DEL164-191/F471L/L415A/V74A); assay: cell-based
T6 construct: expressed in transfected cells; host or cells: HEK293S GnTI- cells, transient transfection with pEG-BacMam plasmid
Method: as §4, §2, §3

[9] = test system: hNET; details: cited from earlier work
[10] = target: hDAT; details: read-out: Uptake Inhibition Ki, hDAT; ref 3 (Supplementary: Bymaster et al., 2003); cited from earlier work
[11] = target: hDAT; parameters: method as in earlier work; details: vs. RTI-55; ref 4 (Supplementary: Vaishnavi et al., 2004); read-out: Binding Inhibition (Ki), hDAT; cited from earlier work
[12] = HEK293S, 0.5 h, read-out: Percent inhibition of DA uptake, dDATfc, single replicates
[13] = HEK293S, 0.5 h, read-out: Percent inhibition of DA uptake
[14] = 0.5 h, read-out: Percent inhibition of DA uptake

CNCC[C@H](Oc1cccc2ccccc12)c1cccs1 [Dulox]
remaining activity at 0.03 µM ([1]; read-out: Percent binding): 86.3% | remaining activity at 0.1 µM ([1]; read-out: Percent binding): 57.8% | remaining activity at 0.3 µM ([1]; read-out: Percent binding): 34.1% | remaining activity at 1 µM ([1]; read-out: Percent binding): 18.4%

NCC(O)c1ccc(O)c(O)c1 [NE, L-norepinephrine]
Km [2]: 2.6 µM | inhibition at 3000 µM ([3]; HEK293S, 0.5 h, read-out: Percent inhibition of DA uptake, dDATfc, Log[compound] M = -2.52288, single replicates): 2.69% | inhibition at 100 µM ([3]; HEK293S, 0.5 h, read-out: Percent inhibition of DA uptake, dDATfc, Log[compound] M = -4, single replicates): 29.3% | inhibition at 10 µM [3, 12]: 64.5% | inhibition at 1 µM ([3]; HEK293S, 0.5 h, read-out: Percent inhibition of DA uptake, dDATfc, Log[compound] M = -6, single replicates): 92.2% | Ki ([3]; Ki, inhibition of [3H] dopamine uptake): 19.1 µM and 19 µM | Km [4]: 20 µM

NCCc1ccc(O)c(O)c1 [DA, dopamine]
Km [2]: 0.67 µM | inhibition at 30 µM ([3]; HEK293S, 0.5 h, read-out: Percent inhibition of DA uptake, dDATfc, Log[compound] M = -4.52288, single replicates): 8.62% | inhibition at 10 µM [3, 12]: 20% | inhibition at 3 µM ([3]; HEK293S, 0.5 h, read-out: Percent inhibition of DA uptake, dDATfc, Log[compound] M = -5.52288, single replicates): 56.5% | inhibition at 0.1 µM ([3]; HEK293S, 0.5 h, read-out: Percent inhibition of DA uptake, dDATfc, Log[compound] M = -7, single replicates): 91.1% | inhibition at 0.03 µM ([3]; HEK293S, 0.5 h, read-out: Percent inhibition of DA uptake, dDATfc, Log[compound] M = -7.52288, single replicates): 92.7% | Km [4]: 2.54 µM

COc1cccc(C2(O)CCCCC2CN(C)C)c1 (stereo not shown) [Tramadol, tramadol]
remaining activity at 1000 µM ([5]; DATmfc, Log Tramadol (M) -3, replicate values): 6.84% | remaining activity at 100 µM ([5]; DATmfc, Log Tramadol (M) -4, replicate values): 23.9% | remaining activity at 10 µM ([5]; DATmfc, Log Tramadol (M) -5, replicate values): 74.2% | remaining activity at 1 µM ([5]; DATmfc, Log Tramadol (M) -6, replicate values): 91.4% | remaining activity at 3 µM [5]: 91% | remaining activity at 30 µM [5]: 44% | IC50 [6]: 130 ± 12.2 µM | inhibition at 100 µM ([6]; 0.5 h, read-out: Percent inhibition of DA uptake, A117S_A428S, Log[compound] M = -4, single replicates): 48.1% | Ki ([1]; Binding Ki with dDATNET (vs. Nisoxetine)): 5.31 µM and 5.3 µM | remaining activity at 100 µM ([1]; DAT NET, Log Tramadol (M) -4, replicate values, read-out: Percent binding): 43.3% | remaining activity at 30 µM ([1]; read-out: Percent binding): 60% | remaining activity at 300 µM ([1]; read-out: Percent binding): 17.9% | remaining activity at 3000 µM ([1]; read-out: Percent binding): 4.79% | IC50 [3]: 24.7 ± 2.8 µM | Ki [3]: 15.9 ± 1.8 µM | inhibition at 30 µM [3, 13]: 38.5% | IC50 [7]: 35.8 ± 2.2 µM | inhibition at 100 µM ([7]; 0.5 h, A117S, Log[compound] M = -4, single replicates, read-out: Percent inhibition of DA uptake): 29.4% | inhibition at 1 µM ([7]; 0.5 h, A117S, Log[compound] M = -6, single replicates, read-out: Percent inhibition of DA uptake): 105% | inhibition at 3 µM [7, 14]: 105% | inhibition at 30 µM [7, 14]: 61.3% | inhibition at 300 µM [7, 14]: 13.1% | inhibition at 3000 µM [7, 14]: 3.78% | IC50 [8]: 50.5 ± 5.4 µM | inhibition at 100 µM ([8]; 0.5 h, A428S, Log[compound] M = -4, single replicates, read-out: Percent inhibition of DA uptake): 32.2% | inhibition at 1 µM ([8]; 0.5 h, A428S, Log[compound] M = -6, single replicates, read-out: Percent inhibition of DA uptake): 92.4% | inhibition at 300 µM [8, 14]: 11.6% | greater affinity to NET over DAT ([9]; NET over DAT): ~ 50 fold

CNCC[C@H](Oc1cccc2ccccc12)c1cccs1 [S-duloxetine]
Ki [10]: 0.37 µM | remaining activity at 0.003 µM [5]: 86.1% | remaining activity at 0.1 µM [5]: 22.9% | inhibition at 1 µM ([6]; 0.5 h, read-out: Percent inhibition of DA uptake, A117S_A428S, Log[compound] M = -6, single replicates): 11.2% | inhibition at 0.3 µM ([6]; 0.5 h, read-out: Percent inhibition of DA uptake, A117S_A428S, Log[compound] M = -6.52288, single replicates): 44% | inhibition at 0.1 µM ([6]; 0.5 h, read-out: Percent inhibition of DA uptake, A117S_A428S, Log[compound] M = -7, single replicates): 76.7% | inhibition at 0.001 µM ([6]; 0.5 h, read-out: Percent inhibition of DA uptake, A117S_A428S, Log[compound] M = -9, single replicates): 97.8% | increase in IC50 values, combination of A428S and A117S ([6]; double mutant vs dDATfc): ~ 3 fold | inhibition at 0.001 µM [3, 13]: 96.4% | inhibition at 0.003 µM [3, 13]: 88.9% | inhibition at 0.01 µM [3, 13]: 85.9% | inhibition at 0.03 µM [3, 13]: 77.7% | inhibition at 0.1 µM [3, 13]: 45% | inhibition at 0.3 µM [3, 13]: 21.9% | inhibition at 0.03 µM [7, 14]: 96.1% | inhibition at 0.03 µM [8, 14]: 94.4% | inhibition at 0.1 µM [8, 14]: 80.2% | inhibition at 0.3 µM [8, 14]: 45.5% | inhibition at 1 µM [8, 14]: 9.62% | Ki [11]: 0.23 ± 0.017 µM

CN(C)C[C@H]1CCCC[C@]1(O)c1cccc(O)c1 [desmetramadol, O-desmethyl tramadol]
IC50 ([9]; read-out: IC50, inhibition of hNET): 6 µM
